In patent EP0411733A2, “11-Beta-aryle-gona-4,9-dien-3-ones” (SCHERING AKTIENGESELLSCHAFT, priority 1989, dated 1991):

System: weibliche gravide Raten
Test: abortive effect (inhibition of fertility) in pregnant rats, subcutaneous treatment
Format: in vivo
Details: Gesamtdosis 2 mg/Tier/4d, subkutan in Erdnußöl, 5. bis 8. Graviditätstag, Autopsie am 20. Graviditätstag; for Fertilitätshemmung absol.: N = 6
Source text: Zur Kennzeichnung der antigestagenen Wirkung dient die tierexperimentell ermittelt abortive Wirkung der Substanzen. Zu diesem Zweck wurden weibliche gravide Raten (positiver Spermiennachweis = 1 Graviditätstag) im Gewicht zwischen 180 und 200 g am 5. bis 8. Graviditätstag mit der Testverbindung in Erdnußöl suspendiert subkutan behandelt. Nach Autopsie am 20. Graviditätstag wurden die Uterie untersucht. Dabei wurde die Anzahl der graviden Weibchen und die durchschnittliche Zahl der Feten pro gravides Tier festgestellt. Der Hemmeffekt wurde wie folgt berechnet: [formula]

Row | SMILES | Fertilitätshemmung rel. % | Fertilitätshemmung absol.
1 | CO[C@@]12C[C@@H]1C[C@H]1[C@@H]3CCC4=CC(=O)CCC4=C3[C@@H](c3ccc(C(C)=O)cc3)C[C@@]12C [11β-(4-Acetylphenyl)-17β-methoxy-16α,17α-methylen-estra-4,9-dien-3-on] | 100% | 6
2 | COCC1(OC)CCC2C3CCC4=CC(=O)CCC4=C3C(c3ccc(C(C)=O)cc3)CC21C (stereo not drawn) [11β-(4-Acetylphenyl)-17β-methoxy-17α-methoxymethyl-estra-4,9-dien-3-on] | 100% | 6
3 | CC#CC1(OC)CCC2C3CCC4=CC(=O)CCC4=C3C(c3ccc(C(C)=O)cc3)CC21C (stereo not drawn) [11β-(4-Acetylphenyl)-17β-methoxy-17α-propinyl-13-methyl-gona-4,9-dien-3-on] | 100% | 6
4 | CC#CC1(OC)CCC2C3CCC4=CC(=O)CCC4=C3C(c3ccc(N(C)C)cc3)CC21C (stereo not drawn) [11β-(4-Dimethylaminophenyl)-17β-methoxy-17α-propinyl-13-methyl-gona-4,9-dien-3-on] | 100% | 6
5 | C#C[C@]1(OC)CC[C@H]2[C@@H]3CCC4=CC(=O)CCC4=C3[C@@H](c3ccc(C(C)=O)cc3)C[C@@]21C [17β-Methoxy-17α-ethinyl-11β-acetylphenyl, 11β-(4-Acetylphenyl)-17α-ethinyl-17β-methoxy-13-methyl-gona-4,9-dien-3-on] | 100% | 6
6 | CC#C[C@]1(O)CC[C@H]2[C@@H]3CCC4=CC(=O)CCC4=C3[C@@H](c3ccc(N(C)C)cc3)C[C@@]21C [RU 486, 11β-(4-Dimethylaminophenyl)-17β-hydroxy-17α-(prop-1-inyl)-4,9-estradien-3-on, reference compound] | 80% | 
